The text below walks through data of patent publication US9120785B2, “Pyridyl aminopyridines as Syk inhibitors” (Merck Sharp & Dohme Corp., priority 2011, dated 2015).

pIC50: −log10 of the molar value.

One test has as its target recombinant human GST-Syk (Homo sapiens (Human), UniProt P43405). Kind of test: Homogeneous Time-Resolved Fluorescence (HTRF) assay for the recombinant human Syk enzyme. The class given is biochemical. The note with it: recombinant human GST-Syk 5 pM, ATP 25 μM, 10-dose titration; read-out: rhSyk (nM) IC50. Here is the method:
Homogeneous Time-Resolved Fluorescence (HTRF) Assay for the Recombinant Human Syk Enzyme:
A recombinant GST-hSyk fusion protein was used to measure potency of compounds to inhibit human Syk activity. The recombinant human GST-Syk ([…] #08-176) (5 pM final concentration) was incubated with various concentrations of the inhibitor diluted in DMSO (0.1% final concentration) for 10 minutes at room temperature in 15 mM Tris-HCl (pH 7.5), 0.01% tween 20, 2 mM DTT in 384 well plate format. To initiate the reaction the biotinylated substrate peptide (250 nM final concentration) that contains the phosphorylation site for Syk was added with magnesium (5 mM final concentration) and ATP (25 μM final concentration). Final volume of the reaction was 10 μL. Phosphorylation of the peptide was allowed to proceed for 45 minutes at room temperature. To quench the reaction and detect the phosphorylated product, 2 nM of a Europium-anti-phosphotyrosine antibody (Perkin Elmer #AD0161) and 70 nM SA-APC (Perkin-Elmer #CR130-100) were added together in 15 mM Tris pH 7.5, 40 mM EDTA, 0.01% tween 20. Final volume of the quenching solution was 10 μL. The resulting HTRF signal was measured after 30 minutes on an EnVision (Perkin-Elmer) reader using a time-resolved fluorescence protocol.
In general terms: In TR-FRET formats the signal depends on donor and acceptor labels being close together.
By IC50 is commonly meant the concentration that gives 50% inhibition. `Cc1cc(Nc2cc(C(F)(F)F)ccn2)nc(-c2cnc(C(O)[C@H]3CC[C@H](C(=O)O)CC3)s2)c1` (single isomer, unassigned) [Example 14-28, trans-4-{hydroxy[5-(4-methyl-6-{[4-(trifluoromethyl)pyridin-2-yl]amino}pyridin-2-yl)-1,3-thiazol-2-yl]methyl}cyclohexanecarboxylic acid]: the IC50 turned out to be 1.1 nM.

Still in this test, the particulars now being: recombinant human GST-Syk 5 pM, ATP 25 μM; class symbols; read-out: rhSyk activity (IC50).
As a reminder, the pIC50 is the negative decadic logarithm of the IC50, by convention in mol/L. Turning to `CCC(O)(c1ncc(-c2cc(C)cc(Nc3cc(OC(C)C)ccn3)n2)s1)[C@H]1CC[C@H](C(=O)O)CC1` (single isomer, unassigned) [Example 14-22, trans-4-{1-hydroxy-1-[5-(4-methyl-6-{[4-(propan-2-yloxy)pyridin-2-yl]amino}pyridin-2-yl)-1,3-thiazol-2-yl]propyl}cyclohexanecarboxylic acid], the pIC50 was no less than 7.00.

In the case of `Cc1cc(Nc2cc(OC(C)C)ccn2)nc(-c2cnc(C(O)(C3CC3)[C@H]3CC[C@H](C(=O)O)CC3)s2)c1` (single isomer, unassigned) [Example 14-23, trans-4-{cyclopropyl(hydroxy)[5-(4-methyl-6-{[4-(propan-2-yloxy)pyridin-2-yl]amino}pyridin-2-yl)-1,3-thiazol-2-yl]methyl}cyclohexanecarboxylic acid], the pIC50 was no less than 7.00. Turning to `Cc1cc(Nc2cc(OC(C)C)ccn2)nc(-c2cnc(C(O)(C3CC3)[C@H]3CC[C@H](C(=O)O)CC3)s2)c1` (single isomer, unassigned) [Example 14-24, trans-4-{cyclopropyl(hydroxy)[5-(4-methyl-6-{[4-(propan-2-yloxy)pyridin-2-yl]amino}pyridin-2-yl)-1,3-thiazol-2-yl]methyl}cyclohexanecarboxylic acid], the pIC50 was no less than 7.00.

As to `Cc1cc(Nc2cc(OC(C)C)ccn2)nc(-c2cnc(C(O)([C@H]3CC[C@H](C(=O)O)CC3)C(F)(F)F)s2)c1` (single isomer, unassigned) [Example 14-25, trans-4-{2,2,2-trifluoro-1-hydroxy-1-[5-(4-methyl-6-{[4-(propan-2-yloxy)pyridin-2-yl]amino}pyridin-2-yl)-1,3-thiazol-2-yl]ethyl}cyclohexanecarboxylic acid], the pIC50 is no less than 7.00. Still for that read-out and setting: the result for `Cc1cc(Nc2cc(OC(C)C)ccn2)nc(-c2cnc(C(O)([C@H]3CC[C@H](C(=O)O)CC3)C(F)(F)F)s2)c1` (single isomer, unassigned) [Example 14-26, trans-4-{2,2,2-trifluoro-1-hydroxy-1-[5-(4-methyl-6-{[4-(propan-2-yloxy)pyridin-2-yl]amino}pyridin-2-yl)-1,3-thiazol-2-yl]ethyl}cyclohexanecarboxylic acid] reads no less than 7.00. Still for that read-out and setting: then `Cc1cc(Nc2cc(C(F)(F)F)ccn2)nc(-c2cnc(C(O)[C@H]3CC[C@H](C(=O)O)CC3)s2)c1` (single isomer, unassigned) [Example 14-28, trans-4-{hydroxy[5-(4-methyl-6-{[4-(trifluoromethyl)pyridin-2-yl]amino}pyridin-2-yl)-1,3-thiazol-2-yl]methyl}cyclohexanecarboxylic acid], with no less than 7.00; and `Cc1cc(Nc2cc(C(F)(F)F)ccn2)nc(-c2cnc(C(O)[C@H]3CC[C@H](C(=O)O)CC3)s2)c1` (single isomer, unassigned) [Example 14-29, trans-4-{hydroxy[5-(4-methyl-6-{[4-(trifluoromethyl)pyridin-2-yl]amino}pyridin-2-yl)-1,3-thiazol-2-yl]methyl}cyclohexanecarboxylic acid], with no less than 7.00.

Consider `Cc1ccnc(Nc2cccc(-c3cnc(C(C)(O)[C@H]4CC[C@H](C(=O)O)CC4)s3)n2)c1` (single isomer, unassigned) [Example 14-39, trans-4-[1-hydroxy-1-(5-{6-[(4-methylpyridin-2-yl)amino]pyridin-2-yl}-1,3-thiazol-2-yl)ethyl]cyclohexanecarboxylic acid], for which the pIC50 is no less than 7.00. On the same count and under the same terms, the result for `Cc1ccnc(Nc2cccc(-c3cnc(C(C)(O)[C@H]4CC[C@H](C(=O)O)CC4)s3)n2)c1` (single isomer, unassigned) [Example 14-40, trans-4-[1-hydroxy-1-(5-{6-[(4-methylpyridin-2-yl)amino]pyridin-2-yl}-1,3-thiazol-2-yl)ethyl]cyclohexanecarboxylic acid] reads no less than 7.00; that for `CC(O)(c1ncc(-c2cc(Cl)cc(Nc3cc(C(F)(F)F)ccn3)n2)s1)[C@H]1CC[C@H](C(=O)O)CC1` (single isomer, unassigned) [Example 14-52, trans-4-{1-[5-(4-chloro-6-{[4-(trifluoromethyl)pyridin-2-yl]amino}pyridin-2-yl)-1,3-thiazol-2-yl]-1-hydroxyethyl}cyclohexanecarboxylic acid], no less than 7.00. On to `CC(O)(c1ncc(-c2cc(C(F)F)cc(Nc3cc(C(F)(F)F)ccn3)n2)s1)[C@H]1CC[C@H](C(=O)O)CC1` (single isomer, unassigned) [Example 14-53, trans-4-{1-[5-(4-(difluoromethyl)-6-{[4-(trifluoromethyl)pyridin-2-yl]amino}pyridin-2-yl]-1,3-thiazol-2-yl}-1-hydroxyethyl)cyclohexanecarboxylic acid], for which the pIC50 was no less than 7.00. Turning to `CC(O)(c1ncc(-c2cc(C3CC3)cc(Nc3cc(C(F)(F)F)ccn3)n2)s1)[C@H]1CC[C@H](C(=O)O)CC1` (single isomer, unassigned) [Example 14-54], the pIC50 is no less than 7.00. On the same count and under the same terms, then `Cc1cc(Nc2cc(C(F)(F)F)ccn2)nc(-c2cnc(C(C)(O)C3CCC(C(=O)O)C(C)C3)s2)c1` (single isomer, unassigned) [Example 15-1, 4-{1-hydroxy-1-[5-(4-methyl-6-{[4-(trifluoromethyl)pyridin-2-yl]amino}pyridin-2-yl)-1,3-thiazol-2-yl]ethyl}-2-methylcyclohexanecarboxylic acid], with no less than 7.00. On the same count and under the same terms, then `Cc1cc(Nc2cc(C(F)(F)F)ccn2)nc(-c2cnc(C(C)(O)C3CCC(C(=O)O)C(C)C3)s2)c1` (single isomer, unassigned) [Example 15-2, 4-{1-hydroxy-1-[5-(4-methyl-6-{[4-(trifluoromethyl)pyridin-2-yl]amino}pyridin-2-yl)-1,3-thiazol-2-yl]ethyl}-2-methylcyclohexanecarboxylic acid], with no less than 7.00. In the case of `Cc1cc(Nc2cc(C(F)(F)F)ccn2)nc(-c2cnc(C(C)(O)C3CCC(C(=O)O)C(C)C3)s2)c1` (single isomer, unassigned) [Example 15-3, 4-{1-hydroxy-1-[5-(4-methyl-6-{[4-(trifluoromethyl)pyridin-2-yl]amino}pyridin-2-yl)-1,3-thiazol-2-yl]ethyl}-2-methylcyclohexanecarboxylic acid], the pIC50 is no less than 7.00.

As to `Cc1cc(Nc2cc(C(F)(F)F)ccn2)nc(-c2cnc(C(C)(O)C3CCC(C(=O)O)C(C)C3)s2)c1` (single isomer, unassigned) [Example 15-4, 4-{1-hydroxy-1-[5-(4-methyl-6-{[4-(trifluoromethyl)pyridin-2-yl]amino}pyridin-2-yl)-1,3-thiazol-2-yl]ethyl}-2-methylcyclohexanecarboxylic acid], the pIC50 was no less than 7.00. On to `Cc1cc(Nc2cc(C(F)(F)F)ccn2)nc(-c2cnc(C(C)(O)C3CCC(C(=O)O)C(C)C3)s2)c1` (single isomer, unassigned) [Example 15-5, 4-{1-hydroxy-1-[5-(4-methyl-6-{[4-(trifluoromethyl)pyridin-2-yl]amino}pyridin-2-yl)-1,3-thiazol-2-yl]ethyl}-2-methylcyclohexanecarboxylic acid], for which the pIC50 was no less than 7.00.
